Eight compounds from patent publication US20100279990A1, “ANTIPROLIFERATIVE COMPOUNDS, COMPOSITIONS AND METHODS OF USE” (RAMOT AT TEL-AVIV UNIVERSITY LTD., priority 2006, published 2010) can be followed below.

Usually inhibition stands for the percentage by which the read-out fell short of the control. A low value points to little suppression. One may read the viability as a read-out of living cells in per cent, often relative to untreated cells. By IC50 is commonly meant the concentration that inhibits the measured activity by half.

Read-outs that look alike come from different tables or passages of the source.

Data set [1] relates to human colon carcinoma cells (HT29).
The test system of data set [2] is CEM/C1 human leukemia cells. The data set can be described thus: Cell proliferation of CEM/C1 human leukemia cells, 3H thymidine incorporation. Particulars: for cell proliferation: 1 μM, 3H thymidine incorporation 24 hours; for inhibition at 10 µM: Homo sapiens, 3H thymidine incorporation; for effect on cell proliferation: already evident at 1 μM. It is filed as cell-based. How it is done:
[…] Cells, 10,000/well, were harvested and the incorporated radioactivity was determined by liquid scintillation in a beta counter.
In general terms: Incorporation of labelled thymidine or its analogues reports DNA synthesis.

In data set [3] the test system is human colon carcinoma cells (HT29). In words: cells. The settings on record: HT-29, read-out: cell viability.
The subject of data set [4] is Jurkat Lymphoma cells. In words: Viability of Jurkat Lymphoma cells, combination with Doxorubicin. It is filed as cell-based. Particulars: Homo sapiens, Doxorubicin 20 μM alone, read-out: inhibition of cell viability.
For data set [5], the system named is human tumor cell lines. In words: In vitro antitumor activity in panel of 37 human tumor cell lines (Monolayer Assay, PI), summary. The class given is cell-based. Particulars: mean over human cancer cell-lines.
The subject of data set [6] is Caspase 3 activity of LS1034 human colon MDR carcinoma cells. In words: Caspase-3 activity in LS1034 human colon MDR carcinoma cells. The settings on record: 10 or 20 μM, 4 hr after exposure. It is filed as cell-based. How it is done:
Caspase 3 activity was measured by an enzymatic fluorimetric method using a fluorigenic substrate (Ac-DEVD-AMC), which produces blue fluorescence detected at 360 nm wavelength. […] When AMC is cleaved from the substrate by caspase-3, and caspase-3-like enzymes, it produces a yellow-green fluorescence, which can be monitored by a fluorimeter at 460 nm. The amount of yellow green fluorescence is proportional to the activity of caspase-3 in the cell extract sample.
Whole cell lysate was added to a buffer containing 100 μM peptide substrate, 100 mM HEPES, 10% glycerol, 1 mM EDTA and 10 mM dithiothreitol. Measurements were taken every 5 min for 80 min. These experiments were also monitored in the presence of a specific caspase-3 inhibitor, DEVD-AMC-CHO, which was added after 45 or 60 min to the reaction mixture, to ascertain the specificity of the enzyme.

The test system of data set [7] is human glioma U87 cells. The data set can be described thus: Viability of human glioma U87 cell-line. It is filed as cell-based. Particulars: FIG. 9.
Data set [8] has as its system c-jun and p-c-jun expression in HaCat cells. The data set can be described thus: Western blot of c-jun and p-c-jun expression in HaCat cells. It is filed as cell-based, human. Particulars: 15 μM, 1 hr. The text has this:
For each sample 2×10^7 cells were used. The cells were lysed, and equal amounts of protein was fractionated on polyacrylamide gel and then transferred to PVDF membrane. The amount of the protein was detected by immuno-blotting with monoclonal anti-c-Jun or p-c-Jun antibodies (Cayman, Ann Arbor, Mich., USA). A second antibody conjugated to horseradish peroxidase was used and visualized with chemiluminescent Kit (Pierce, Rockford, Ill., USA) on film. […] Activation of the […] pathway produces p-c-Jun as a major end, while initiating apoptosis in certain cell-lines.

Data set [9] relates to human colon carcinoma cells (HT29). The data set can be described thus: HT29 human colon carcinoma s.c. tumor in Nude CD1 male mice. It is filed as in vivo. The text has this: This example illustrates the effect of several compounds, including an exemplary compound of the present invention, on tumor volume. tumor weight and body weight in mice. Nude CD1 male mice were purchased from Harlan (Israel). Animals were housed under controlled conditions (temperature, humidity) and were given food and water ad libitum. After one week of acclimatization animals were inoculated s.c. with human colon carcinoma cells (HT29) (2,000,000 cell/animals.). Therapy began 8 days after inoculation, at which time the animals were divided randomly into 4 groups (7-8 mice/group) and administered ip 3 times weekly for 4 weeks with the following compounds: […] Body weight and tumor volume were measured weekly. Tumor volume is defined as (shortest diameter)^2×(longest diameter)×0.5. At the end of the treatment, animals were sacrificed and tumors and organs collected and weighed.

Data set [10] concerns CEM/C1 cell-lines (camptothecin resistant human T-cell leukemia). The data set can be described thus: Viability of CEM/C1 cell-line, alamar blue. The class given is cell-based. Particulars: 1-30 μM. From the text:
This cell-line is a camptothecin (CPT) resistant derivative of the human T-cell leukemia purchased from ATCC (USA). […] The results are depicted in FIG. 14. Each point represents the mean+/−SEM of 4 determinations.

Data set [11] has as its system human Jurkat lymphoma cells. The data set can be described thus: Viability of human Jurkat lymphoma cells, alamar blue staining. Particulars: for IC50: Homo sapiens, 48 hr, alamar blue. It is filed as cell-based. As to the method:
This example illustrates cell viability data derived from the incubation of a human. […] The results are depicted in FIGS. 1A, 1B, and 1C. […] See Nociari et al., J. Immunol. […] Each point represents the mean+/−SE of 4 determinations.

Data set [12] relates to human Jurkat lymphoma cells. The data set can be described thus: Viability of human Jurkat lymphoma cells, dexamethasone alone and in combination. It is filed as cell-based. Particulars: Homo sapiens, 20 μM alone, FIG. 13B, read-out: inhibition of cell viability.
Data set [13] concerns Con-A activated naive mouse splenocytes. The data set can be described thus: Con-A-induced mouse splenocyte proliferation, alamar blue staining. The class given is cell-based. From the text:
This example illustrates cell viability data obtained by separately administering different concentrations of compound (Ia), paroxetine, citalopram, and ecitalopram to Con-A activated naive mouse splenocytes. FIG. 3A depicts the comparative effect of compound (Ia), paroxetine, citalopram and ecitalopram on Con-A-induced mouse splenocyte proliferation using alamar blue staining after 48 hr. Each point represents the mean+/−SE of 5 determinations.

Data set [14] deals with human keratinocytes (HaCat cells). The data set can be described thus: Viability of human keratinocytes (HaCat cells), neutral red staining. The settings on record: 24 hr, read-out: IC50, cell viability. The class given is cell-based.
[15] abbreviates: FIG. 1C, read-out: IC50, inhibition of cell viability.

For the compound `COc1cccc2c1C(=O)c1c(O)c3c(c(O)c1C2=O)C[C@@](O)(C(=O)CO)C[C@@H]3O[C@H]1C[C@H](N)[C@H](O)[C@H](C)O1` [doxorubicin, reference compound], the “effect on cell viability compared with the antidepressants and compound (Ia)” value in [1] (10 and 20 μM, FIG. 2A) is “more pronounced than that produced by the antidepressants and compound (Ia)”. In [2], the cell proliferation is 65.7 % of controls and the inhibition at 10 µM was approximately 95%. For the same compound, the viability at 30 µM in data set [3] is 57.7%. Also, the cytotoxicity at 20 µM in data set [4] amounted to 54%.
Take `CN[C@H]1CC[C@@H](c2ccc(Cl)c(Cl)c2)c2ccccc21` [sertraline]: the “potency compared with paroxetine” value in data set [1] (10-30 μM, FIG. 2A) is listed as “higher potency than paroxetine”. Further, in data set [1] (equimolar doses, FIG. 2B), the “potency compared with paroxetine and fluoxetine” value was “significantly more potent than paroxetine and fluoxetine”. Moreover, in [5], the “mean IC70” value came out at 13 µM. Further, the caspase-3 activity entry in data set [6] is on record as “dose dependent increase in the activity of caspase-3”. The viability at 30 µM in data set [3] worked out at 60.3%. Further, in [7], the “effect on cell viability” value is “inhibit this glioma cell-line in a dose dependant fashion” and the “efficacy compared with paroxetine” value is “higher efficacy than paroxetine”. Besides, the “effect on c-Jun / p-c-Jun (MAPK pathway)” value in data set [8] is reported as “activation of the c-Jun-N-terminal kinase (JNK) pathway”. Moreover, the “decrease in body weight” value in [9] (compared to 5 FU or controls, FIG. 18) worked out at 10%. Moreover, the “histopathological assessment of spleen, liver and kidney” value in data set [9] (end of treatment) is recorded as “change in capsule fibrosis at random”.
For `CN[C@H]1CC[C@@H](c2ccc(Cl)c(Cl)c2)c2ccc(C#CCCCOC)cc21.Cl` [compound (Ic), (1S-cis)-4-(3,4-dichlorophenyl)-7-(5-methoxy-1-pentyn-1-yl)-1,2,3,4-tetrahydro-N-methyl-1-naphthalenamine hydrochloride], in data set [2], the inhibition at 10 µM was approximately 95% and the “effect on cell proliferation” value was “dose dependent decrease in cell proliferation”. For the same compound, the IC50 in data set [10] amounted to 13.5 µM. In addition, the IC50 in data set [11] (FIG. 1B, read-out: IC50, decrease in cell viability) stood at 17 µM. Besides, in data set [11] (lower concentrations (1-10 μM), FIG. 1B), the “potency compared with sertraline” value was “higher potency than sertraline”.
For `OCCCC#Cc1cc2c(cc1OC[C@@H]1CNCC[C@H]1c1ccc(F)cc1)OCO2` [compound (Ib), (3S-trans)-3-((6-(5-hydroxy-1-pentyn-1-yl)-1,3-benzodioxol-5-yloxy)methyl)-4-(4-fluorophenyl)-piperidine], in data set [2], the “effect compared to sertraline and paroxetine” value is “significantly higher effects compared to sertraline and paroxetine”; the cell proliferation is listed as 43.6 % of controls; the “effect on cell proliferation” value was “dose dependent decrease in cell proliferation”. This compound also had an IC50 in [10] of 7.6 µM. The IC50 in data set [11] (setting [15]) turned out to be 19.5 µM. Further, the “potency compared with paroxetine” value in data set [11] (concentrations higher than 5 μM, FIG. 1C) is “higher potency than paroxetine”.
Consider `C[C@@H]1C[C@H]2[C@@H]3CCC4=CC(=O)C=C[C@]4(C)[C@@]3(F)[C@@H](O)C[C@]2(C)[C@@]1(O)C(=O)CO` [dexamethasone, reference compound], for which the cytotoxicity at 20 µM in [12] is 8%.
As to `CN(C)CCC[C@@]1(c2ccc(F)cc2)OCc2cc(C#N)ccc21` [ecitalopram, reference compound], the effect on cell-viability entry in data set [13] (up to 30 μM) is recorded as “no effect on cell-viability”. For the same compound, the “effect on cell viability” value in data set [11] (low concentrations (2.5 and 5.0 μM), FIG. 1A) is “slight decrease in cell-viability”.
For the compound `Fc1ccc([C@@H]2CCNC[C@H]2COc2ccc3c(c2)OCO3)cc1` [paroxetine, reference compound], the IC50 in data set [13] (Splenocyte, 48 hr, alamar blue, read-out: IC50, inhibition in cell viability) stood at 11.9 µM; in data set [10] it was 12.3 µM; in data set [14], 16 µM; in data set [11] (FIG. 1A, read-out: IC50, anti-proliferative activity), 37.7 µM; in data set [11] (setting [15]), 37.6 µM. For the same compound, the caspase-3 activity entry in [6] was “dose dependent increase in the activity of caspase-3”. Further, the viability at 30 µM in data set [3] is 74%. Moreover, the “effect on cell viability” value in [7] is “inhibit this glioma cell-line in a dose dependant fashion”.
As for `O=c1[nH]cc(F)c(=O)[nH]1` [5 FU, fluorouracil, reference compound], the tumor volume entry in data set [9] (HT29 tumor in nude mice, ip 3 times weekly, after 3 and 4 weeks of therapy, FIG. 16) is on record as “significantly decreased compared to the control groups”.
